What was measured:
[1] = biological target: T1, Recombinant IKKα (Homo sapiens, UniProt O15111); test: DELFIA IKKα kinase assay (apparent Ki, Cheng-Prusoff); type: biochemical
T1 construct: purchased Millipore, Dundee, UK
T1 sequence (O15111 1-745): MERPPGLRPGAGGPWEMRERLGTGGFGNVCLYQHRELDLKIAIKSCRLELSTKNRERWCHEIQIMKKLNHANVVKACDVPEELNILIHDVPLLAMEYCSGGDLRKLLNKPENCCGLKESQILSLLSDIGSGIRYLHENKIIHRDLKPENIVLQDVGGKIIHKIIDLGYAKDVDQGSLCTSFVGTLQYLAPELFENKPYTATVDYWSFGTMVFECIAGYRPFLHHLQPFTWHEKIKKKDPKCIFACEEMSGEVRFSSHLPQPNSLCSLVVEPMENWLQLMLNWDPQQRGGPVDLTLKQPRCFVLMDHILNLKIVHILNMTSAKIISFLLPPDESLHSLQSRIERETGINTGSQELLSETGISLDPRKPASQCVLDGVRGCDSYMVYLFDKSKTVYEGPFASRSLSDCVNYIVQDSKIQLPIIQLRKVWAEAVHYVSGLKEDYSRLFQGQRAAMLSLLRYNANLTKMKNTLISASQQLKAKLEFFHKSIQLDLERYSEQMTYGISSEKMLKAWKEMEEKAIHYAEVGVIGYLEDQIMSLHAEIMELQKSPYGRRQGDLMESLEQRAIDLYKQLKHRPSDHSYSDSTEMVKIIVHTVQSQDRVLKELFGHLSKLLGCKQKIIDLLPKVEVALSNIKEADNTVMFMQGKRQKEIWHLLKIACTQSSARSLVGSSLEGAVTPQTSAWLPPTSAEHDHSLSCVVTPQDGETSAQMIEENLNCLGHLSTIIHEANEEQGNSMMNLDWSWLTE
Method in brief: (§1)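 Recombinant IKKα or IKKβ (37 nM) with 0.375 μM biotinylated IκB-α (Ser32) peptide and 40 μM ATP in 40 mM Tris-HCl pH 7.5, 20 mM MgCl2, 60 min at 30° C. Phospho-substrate captured on streptavidin and detected by anti-phospho-IκB-α plus europium anti-mouse IgG time-resolved fluorescence; apparent Ki via Cheng-Prusoff.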

[2] = biological target: T2, Recombinant IKKβ (Homo sapiens, UniProt O14920); test: DELFIA IKKβ kinase assay (apparent Ki, Cheng-Prusoff); type: biochemical
T2 construct: purchased Millipore, Dundee, UK
T2 sequence (O14920 1-756): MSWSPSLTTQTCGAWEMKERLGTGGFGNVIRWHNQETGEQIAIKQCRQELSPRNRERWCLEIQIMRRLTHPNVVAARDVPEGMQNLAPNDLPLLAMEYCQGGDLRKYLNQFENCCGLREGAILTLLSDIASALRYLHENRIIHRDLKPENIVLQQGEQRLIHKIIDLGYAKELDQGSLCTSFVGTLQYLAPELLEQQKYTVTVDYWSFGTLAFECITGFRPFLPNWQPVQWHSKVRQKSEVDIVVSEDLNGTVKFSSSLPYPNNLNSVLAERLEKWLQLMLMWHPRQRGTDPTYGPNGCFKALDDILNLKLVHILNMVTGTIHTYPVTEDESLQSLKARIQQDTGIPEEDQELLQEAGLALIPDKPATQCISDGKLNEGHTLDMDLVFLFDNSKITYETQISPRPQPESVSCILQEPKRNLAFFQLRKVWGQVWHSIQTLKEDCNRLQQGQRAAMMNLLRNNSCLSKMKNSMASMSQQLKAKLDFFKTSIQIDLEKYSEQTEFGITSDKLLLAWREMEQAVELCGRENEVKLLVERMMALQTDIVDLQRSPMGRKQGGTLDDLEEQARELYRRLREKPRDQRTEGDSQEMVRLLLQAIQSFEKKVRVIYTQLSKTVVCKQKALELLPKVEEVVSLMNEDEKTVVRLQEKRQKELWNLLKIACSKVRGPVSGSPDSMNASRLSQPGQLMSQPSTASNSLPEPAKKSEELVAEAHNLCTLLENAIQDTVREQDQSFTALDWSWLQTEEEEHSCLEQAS
Method in brief: as §1

[3] = DELFIA assay (first line of an example)
[4] = non-italicised figure: DELFIA assay

Row | SMILES | Ki [1, 3] [nM] | Ki [2, 3] [nM] | Ki [1, 4] [nM] | Ki [2, 4] [nM]
1 | Nc1n[nH]c2ccc(-c3ccnc4[nH]c(C5CC5)cc34)cc12 [Example 218, 5-(2-Cyclopropyl-1H-pyrrolo[2,3-b]pyridin-4-yl)-1H-indazol-3-amine] | 5 | 63 |  | 
2 | Nc1n[nH]c2ccc(-c3ccnc4[nH]c(CCC5CCCCC5)cc34)cc12 [Example 222, 5-(2-(2-Cyclohexylethyl)-1H-pyrrolo[2,3-b]pyridin-4-yl)-1H-indazol-3-amine] | 19 | 134 |  | 
3 | Nc1nccc(-c2ccc3[nH]nc(N)c3c2)c1C#CC1(O)CCCCC1 [Example 90, 1-((2-Amino-4-(3-amino-1H-indazol-5-yl)pyridine-3-yl)ethynyl)cyclohexan-1-ol] |  |  | 36 | 1410
4 | CN1CCCN(Cc2cc3c(-c4ccc5[nH]nc(N)c5c4)ccnc3[nH]2)CC1 [Example 266, 5-(2-((4-Methyl-1,4-diazepan-1-yl)methyl)-1H-pyrrolo[2,3-b]pyridin-4-yl)-1H-indazol-3-amine] | 46 | 1800 |  | 
5 | Nc1n[nH]c2c(C#CCCCN3CCOCC3)cc(-c3ccnc4[nH]ccc34)cc12 [Example 210, 7-(5-Morpholinopent-1-yn-1-yl)-5-(1H-pyrrolo[2,3-b]pyridin-4-yl)-1H-indazol-3-amine] | 23 | 3100 |  | 
6 | Nc1n[nH]c2ccc(-c3ccnc4[nH]c(C(=O)N5CCCC5)cc34)cc12 [Example 234, (4-(3-Amino-1H-indazol-5-yl)-1H-pyrrolo[2,3-b]pyridin-2-yl)(pyrrolidin-1-yl)methanone] | 19 | 272 |  | 
7 | Nc1n[nH]c2ccc(-c3ccnc4[nH]c(C5CCOCC5)cc34)cc12 [Example 228, 5-(2-(tetrahydro-2H-pyran-4-yl)-1H-pyrrolo[2,3-b]pyridin-4-yl)-1H-indazol-3-amine] | 12 | 97 |  | 
8 | Nc1nccc(-c2ccc3[nH]nc(N)c3c2)c1C#CC1(O)CCCCCC1 [Example 91, 1-((2-Amino-4-(3-amino-1H-indazol-5-yl)pyridine-3-yl)ethynyl)cycloheptan-1-ol] |  |  | 105 | 3090
9 | CN1CCN(C(=O)c2cc3c(-c4ccc5[nH]nc(N)c5c4)ccnc3[nH]2)CC1 [Example 243, (4-(3-Amino-1H-indazol-5-yl)-1H-pyrrolo[2,3-b]pyridin-2-yl)(4-methylpiperazin-1-yl)methanone] | 72 | 1030 |  | 
10 | Nc1n[nH]c2ccc(-c3ccnc4[nH]c(C(=O)NC5CCCCC5)cc34)cc12 [Example 236, 4-(3-Amino-1H-indazol-5-yl)-N-cyclohexyl-1H-pyrrolo[2,3-b]pyridine-2-carboxamide] | 10 | 79 |  | 
11 | Nc1n[nH]c2ccc(-c3ccnc4[nH]c(CC5CCOCC5)cc34)cc12 [Example 230, 5-(2-((tetrahydro-2H-pyran-4-yl)methyl)-1H-pyrrolo[2,3-b]pyridin-4-yl)-1H-indazol-3-amine] | 11 | 260 |  | 
12 | CC(C)(C)OCC#Cc1c(-c2ccc3[nH]nc(N)c3c2)ccnc1N [Example 88, 5-(2-Amino-3-(3-(tert-butoxy)prop-1-yn-1-yl)pyridine-4-yl)-1H-indazol-3-amine] |  |  | 133 | 2340
13 | Nc1n[nH]c2ccc(-c3ccnc4[nH]c(CN5CCC(F)(F)CC5)cc34)cc12 [Example 261, 5-(2-((4,4-Difluoropiperidin-1-yl)methyl)-1H-pyrrolo[2,3-b]pyridine-4-yl)-1H-indazol-3-amine] | 49 | 2390 |  | 
14 | Nc1nccc(-c2ccc3[nH]nc(N)c3c2)c1C#CC1CCCCC1 [Example 74, 5-(2-Amino-3-(cyclohexylethynyl)pyridine-4-yl)-1H-indazol-3-amine] |  |  | 12 | 342
15 | Nc1n[nH]c2ccc(-c3ccnc4[nH]c(CNC5CCCCC5)cc34)cc12 [Example 251, 5-(2-((cyclohexylamino)methyl)-1H-pyrrolo[2,3-b]339yridine-4-yl)-1H-indazol-3-amine] | 74 | 1300 |  | 
16 | Nc1n[nH]c2ccc(-c3ccnc4[nH]c(CN5CCCCC5)cc34)cc12 [Example 260, 5-(2-(Piperidin-1-ylmethyl)-1H-pyrrolo[2,3-b]pyridine-4-yl)-1H-indazol-3-amine] | 91 | 1720 |  | 
17 | Nc1nccc(-c2ccc3[nH]nc(N)c3c2)c1C#CCCC(=O)N1CCOCC1 [Example 99, 5-(2-Amino-4-(3-amino-1H-indazol-5-yl)pyridine-3-yl)-1-morpholinopent-4-yn-1-one] |  |  | 15 | 531
18 | CN(C)CCCNCc1cc2c(-c3ccc4[nH]nc(N)c4c3)ccnc2[nH]1 [Example 258, N^1-((4-(3-amino-1H-indazol-5-yl)-1H-pyrrolo[2,3-b]pyridin-2-yl)methyl)-N^3,N^3-dimethylpropane-1,3-diamine] | 16 | 1130 |  | 
19 | Nc1n[nH]c2ccc(-c3ccnc4[nH]c(CCN5CCCCC5)cc34)cc12 [Example 267, 5-(2-(2-(Piperidin-1-yl)ethyl)-1H-pyrrolo[2,3-b]pyridine-4-yl)-1H-indazol-3-amine] | 53 | 1380 |  | 

The remaining lines, values ahead:

Row | Ki [1, 3] [nM] | Ki [2, 3] [nM] | Ki [1, 4] [nM] | Ki [2, 4] [nM] | SMILES
20 | 58 | 838 |  |  | CC(C)(C)Cc1cc2c(-c3ccc4[nH]nc(N)c4c3)ccnc2[nH]1 [Example 220, 5-(2-Neopentyl-1H-pyrrolo[2,3-b]pyridin-4-yl)-1H-indazol-3-amine]
21 | 202 | 4020 |  |  | CC(C)(C)NCc1cc2c(-c3ccc4[nH]nc(N)c4c3)ccnc2[nH]1 [Example 248, 5-(2-((tert-Butylamino)methyl)-1H-pyrrolo[2,3-b]pyridine-4-yl)-1H-indazol-3-amine]
22 |  |  | 10 | 511 | Nc1cc(-c2cc(-c3ccoc3)c3[nH]nc(N)c3c2)ccn1 [Example 129, 5-(2-Aminopyridin-4-yl)-7-(furan-3-yl)-1H-indazol-3-amine]
23 |  |  | 6 | 402 | Nc1nccc(-c2ccc3[nH]nc(N)c3c2)c1C#CCO [Example 83, 3-(2-Amino-4-(3-amino-1H-indazol-5-yl)pyridine-3-yl)prop-2-yn-1-ol]
24 | 26 | 137 |  |  | C#Cc1cc(-c2ccnc3[nH]ccc23)cc2c(N)n[nH]c12 [Example 200, 7-Ethynyl-5-(1H-pyrrolo[2,3-b]pyridin-4-yl)-1H-indazol-3-amine]
25 |  |  | 54 | 838 | Nc1cc(-c2cc(-c3ccccc3)c3[nH]nc(N)c3c2)ccn1 [Example 104, 5-(2-Aminopyridin-4-yl)-7-phenyl-1H-indazol-3-amine]
26 |  |  | 4 | 96 | Nc1nccc(-c2ccc3[nH]nc(N)c3c2)c1C#CCCCO [Example 85, 5-(2-Amino-4-(3-amino-1H-indazol-5-yl)pyridine-3-yl)pent-4-yn-1-ol]
27 |  |  | 281 | 3000 | CC(C)(O)C#Cc1cc(-c2ccnc(N)c2)cc2c(N)n[nH]c12 [Example 140, 4-(3-Amino-5-(2-aminopyridin-4-yl)-1H-indazol-7-yl)-2-methylbut-3-yn-2-ol]
28 |  |  | 53 | 1470 | CC(C)(C)C#Cc1cc(-c2ccnc(N)c2)cc2c(N)n[nH]c12 [Example 137, 5-(2-Aminopyridin-4-yl)-7-(3,3-dimethylbut-1-yn-1-yl)-1H-indazol-3-amine]
29 | 81 | 1520 |  |  | CC(C)(O)C#Cc1cc(-c2ccnc3[nH]ccc23)cc2c(N)n[nH]c12 [Example 206, 4-(3-Amino-5-(1H-pyrrolo[2,3-b]pyridin-4-yl)-1H-indazol-7-yl)-2-methylbut-3-yn-2-ol]

Reference: patent publication US20250304576A1 (Cancer Research Technology Limited, priority 2022, published 2025)
